Legend:
[1] = biological target: GDP-bound NRAS wild-type protein (Homo sapiens, UniProt P01111); experiment: Binding to NRAS by surface plasmon resonance (SPR), Single Cycle Kinetics; details: SPR KD ratio NRAS/KRAS, class symbols
[2] = system: human lung cancer strain NCI-H441;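 also: cell proliferation inhibition after four days measured by CellTiter-Glo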
[3] = biological target: GDP-bound KRAS wild-type protein (Homo sapiens, UniProt P01116); experiment: Binding to KRAS by surface plasmon resonance (SPR), Single Cycle Kinetics; details: SPR Single Cycle Kinetics, GDP-bound KRAS wild-type protein, 1:1 binding model; read-out: KRAS KD
GDP-bound KRAS wild-type protein, sequence (P01116 whole entry): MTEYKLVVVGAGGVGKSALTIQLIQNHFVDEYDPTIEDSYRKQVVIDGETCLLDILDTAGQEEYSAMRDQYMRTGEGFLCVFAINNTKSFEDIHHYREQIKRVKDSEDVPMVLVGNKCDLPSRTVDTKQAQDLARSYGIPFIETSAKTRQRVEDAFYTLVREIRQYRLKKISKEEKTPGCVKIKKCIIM

[4] = biological target: GDP-bound HRAS wild-type protein (Homo sapiens, UniProt P01112); experiment: Binding to HRAS by surface plasmon resonance (SPR), Single Cycle Kinetics; details: SPR KD ratio HRAS/KRAS, class symbols
GDP-bound HRAS wild-type protein, sequence (P01112 whole entry): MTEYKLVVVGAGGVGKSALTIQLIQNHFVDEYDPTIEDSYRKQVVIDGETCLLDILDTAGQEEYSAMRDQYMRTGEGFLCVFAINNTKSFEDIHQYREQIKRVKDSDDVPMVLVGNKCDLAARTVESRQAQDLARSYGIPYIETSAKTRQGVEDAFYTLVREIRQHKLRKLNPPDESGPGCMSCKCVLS

GDP-bound NRAS wild-type protein, sequence (P01111 whole entry): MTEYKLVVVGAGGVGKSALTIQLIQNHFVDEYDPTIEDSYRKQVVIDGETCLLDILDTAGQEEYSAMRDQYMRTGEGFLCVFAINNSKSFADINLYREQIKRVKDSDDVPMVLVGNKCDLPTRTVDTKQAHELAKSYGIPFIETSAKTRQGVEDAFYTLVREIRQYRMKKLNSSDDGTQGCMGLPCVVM

Structure (SMILES)	NRAS/KRAS (ratio of KD value with respect to GDP-bound NRAS wild-type protein to KD value with respect to KRAS) [1]	IC50 [2]	Kd [3]	HRAS/KRAS (ratio of KD value with respect to GDP-bound HRAS wild-type protein to KD value with respect to KRAS) [4]
CCC(CC)[C@H]1C(=O)N(C)[C@H](C(=O)N(C)C)CC(=O)N(C)[C@@H](COC)C(=O)N[C@@H]([C@@H](C)CC)C(=O)N2CCC[C@H]2C(=O)N(C)[C@H]2C/C=C\CCN(C2=O)[C@@H](Cc2ccc(C(F)F)cc2)C(=O)N(C)CC(=O)N[C@@H](CCc2ccc(Cl)c(Cl)c2)C(=O)N2C[C@H](OC3CCCC3)C[C@H]2C(=O)NC2(CC(C)(C)C2)C(=O)N1C [PP2652]	AA (a compound having 20 or more is denoted as AA)	82.7 nM	1.5 nM	A (a compound having 10 or more and less than 20 is denoted as A)
CC[C@H](C)[C@@H]1NC(=O)[C@H](COC)N(C)C(=O)C[C@@H](C(=O)N(C)C)N(C)C(=O)[C@H](C2CCCCC2)N(C)C(=O)C2(CC(C)(C)C2)NC(=O)[C@@H]2C[C@@H](OC(C)C)CN2C(=O)[C@H](CCc2cc(F)c(C(F)(F)F)c(F)c2)NC(=O)CN(C)C(=O)[C@H](Cc2ccc(C(F)(F)F)cc2)N2CC/C=C\C[C@@H](C2=O)N(C)C(=O)CN(C)C1=O [PP2654]	A (a compound having 10 or more and less than 20 is denoted as A)	12.4 nM	0.12 nM	A (a compound having 10 or more and less than 20 is denoted as A)
CC[C@H](C)[C@@H]1NC(=O)[C@H](COC)N(C)C(=O)C[C@@H](C(=O)N(C)C)N(C)C(=O)[C@H](C2CCCCC2)N(C)C(=O)C2(CC(C)(C)C2)NC(=O)[C@@H]2C[C@@H](OC3CCC3)CN2C(=O)[C@H](CCc2cc(F)c(C(F)(F)F)c(F)c2)NC(=O)CN(C)C(=O)[C@H](Cc2ccc(C(F)(F)F)cc2)N2CC/C=C\C[C@@H](C2=O)N(C)C(=O)CN(C)C1=O [PP2655]	AA (a compound having 20 or more is denoted as AA)	17 nM	0.1 nM	A (a compound having 10 or more and less than 20 is denoted as A)
CC[C@H](C)[C@@H]1NC(=O)[C@H](COC)N(C)C(=O)C[C@@H](C(=O)N(C)C)N(C)C(=O)[C@H](C2CCCCC2)N(C)C(=O)C2(CC(C)(C)C2)NC(=O)[C@@H]2C[C@@H](OC3CCCC3)CN2C(=O)[C@H](CCc2cc(F)c(C(F)(F)F)c(F)c2)NC(=O)CN(C)C(=O)[C@H](Cc2ccc(C(F)(F)F)cc2)N2CC/C=C\C[C@@H](C2=O)N(C)C(=O)CN(C)C1=O [PP2656]	A (a compound having 10 or more and less than 20 is denoted as A)	22.5 nM	0.31 nM	B (a compound having 3 or more and less than 10 is denoted as B)
CCO[C@@H]1C[C@H]2C(=O)NC3(CC(C)(C)C3)C(=O)N(C)[C@@H](C3CCCCC3)C(=O)N(C)[C@H](C(=O)N(C)C)CC(=O)N(C)[C@@H](COC)C(=O)N[C@@H]([C@@H](C)CC)C(=O)N(C3CC3)CC(=O)N(C)[C@H]3C/C=C\CCN(C3=O)[C@@H](Cc3ccc(C(F)(F)F)cc3)C(=O)N(C)CC(=O)N[C@@H](CCc3cc(F)c(C(F)(F)F)c(F)c3)C(=O)N2C1 [PP2657]	A (a compound having 10 or more and less than 20 is denoted as A)	29.2 nM	0.44 nM	A (a compound having 10 or more and less than 20 is denoted as A)
CCO[C@@H]1C[C@H]2C(=O)NC3(CC(C)(C)C3)C(=O)N(C)[C@@H](C3CCCCC3)C(=O)N(C)[C@H](C(=O)N(C)C)CC(=O)N(C)[C@@H](COC)C(=O)N[C@@H]([C@@H](C)CC)C(=O)N(C)CC(=O)N(C)[C@H]3C/C=C\CCN(C3=O)[C@@H](Cc3ccc(C)cc3)C(=O)N(C)CC(=O)N[C@@H](CCc3cc(F)c(C(F)(F)F)c(F)c3)C(=O)N2C1 [PP2659]	A (a compound having 10 or more and less than 20 is denoted as A)	20.6 nM	0.19 nM	A (a compound having 10 or more and less than 20 is denoted as A)
CC[C@H](C)[C@@H]1NC(=O)[C@H](COC)N(C)C(=O)C[C@@H](C(=O)N(C)C)N(C)C(=O)[C@H](C2CCCCC2)N(C)C(=O)C2(CC(C)(C)C2)NC(=O)[C@@H]2C[C@@H](OC(C)C)CN2C(=O)[C@H](CCc2cc(F)c(C(F)(F)F)c(F)c2)NC(=O)CN(C)C(=O)[C@H](Cc2ccc(C)cc2)N2CC/C=C\C[C@@H](C2=O)N(C)C(=O)CN(C)C1=O [PP2660]	A (a compound having 10 or more and less than 20 is denoted as A)	14.3 nM	0.18 nM	A (a compound having 10 or more and less than 20 is denoted as A)
CCO[C@@H]1C[C@H]2C(=O)NC3(CC(C)(C)C3)C(=O)N(C)[C@@H](C3CCCCC3)C(=O)N(C)[C@H](C(=O)N(C)C)CC(=O)N(C)[C@@H](COC)C(=O)N[C@@H]([C@@H](C)CC)C(=O)N(C)CC(=O)N(C)[C@H]3C/C=C\CCN(C3=O)[C@@H](Cc3ccc(C(F)(F)F)cc3)C(=O)N(C)CC(=O)N[C@@H](CCc3ccc(Cl)c(Cl)c3)C(=O)N2C1 [PP2661]	AA (a compound having 20 or more is denoted as AA)	13.4 nM	0.27 nM	A (a compound having 10 or more and less than 20 is denoted as A)
CC[C@H](C)[C@@H]1NC(=O)[C@H](COC)N(C)C(=O)C[C@@H](C(=O)N(C)C)N(C)C(=O)[C@H](C2CCCCC2)N(C)C(=O)C2(CC(C)(C)C2)NC(=O)[C@@H]2C[C@@H](OC(C)C)CN2C(=O)[C@H](CCc2ccc(Cl)c(Cl)c2)NC(=O)CN(C)C(=O)[C@H](Cc2ccc(C(F)(F)F)cc2)N2CC/C=C\C[C@@H](C2=O)N(C)C(=O)CN(C)C1=O [PP2662]	AA (a compound having 20 or more is denoted as AA)	13.1 nM	0.29 nM	A (a compound having 10 or more and less than 20 is denoted as A)
CC[C@H](C)[C@@H]1NC(=O)[C@H](COC)N(C)C(=O)C[C@@H](C(=O)N2CCCCC2)N(C)C(=O)[C@H](C2CCCC2)N(C)C(=O)C2(CC(C)(C)C2)NC(=O)[C@@H]2C[C@@H](OC3CCC3)CN2C(=O)[C@H](CCc2cc(F)c(C(F)(F)F)c(F)c2)NC(=O)CN(C)C(=O)[C@H](Cc2ccc(C(F)(F)F)cc2)N2CC/C=C\C[C@@H](C2=O)N(C)C(=O)CN(C)C1=O [PP2664]	A (a compound having 10 or more and less than 20 is denoted as A)	19.8 nM	0.37 nM	B (a compound having 3 or more and less than 10 is denoted as B)
CC[C@H](C)[C@@H]1NC(=O)[C@H](COC)N(C)C(=O)C[C@@H](C(=O)N2CCCCC2)N(C)C(=O)[C@H](C2CCCC2)N(C)C(=O)C2(CC(C)(C)C2)NC(=O)[C@@H]2C[C@@H](OC3CCCC3)CN2C(=O)[C@H](CCc2cc(F)c(C(F)(F)F)c(F)c2)NC(=O)CN(C)C(=O)[C@H](Cc2ccc(C(F)(F)F)cc2)N2CC/C=C\C[C@@H](C2=O)N(C)C(=O)CN(C)C1=O [PP2665]	A (a compound having 10 or more and less than 20 is denoted as A)	23.4 nM	0.56 nM	A (a compound having 10 or more and less than 20 is denoted as A)
CCO[C@@H]1C[C@H]2C(=O)NC3(CC(C)(C)C3)C(=O)N(C)[C@@H](C3CCCC3)C(=O)N(C)[C@H](C(=O)N3CCCCC3)CC(=O)N(C)[C@@H](COC)C(=O)N[C@@H]([C@@H](C)CC)C(=O)N(C3CC3)CC(=O)N(C)[C@H]3C/C=C\CCN(C3=O)[C@@H](Cc3ccc(C(F)(F)F)cc3)C(=O)N(C)CC(=O)N[C@@H](CCc3cc(F)c(C(F)(F)F)c(F)c3)C(=O)N2C1 [PP2666]	AA (a compound having 20 or more is denoted as AA)	28.6 nM	0.72 nM	AA (a compound having 20 or more is denoted as AA)
CC[C@H](C)[C@@H]1NC(=O)[C@H](COC)N(C)C(=O)C[C@@H](C(=O)N2CCCCC2)N(C)C(=O)[C@H](C2CCCC2)N(C)C(=O)C2(CC(C)(C)C2)NC(=O)[C@@H]2C[C@@H](OC(C)C)CN2C(=O)[C@H](CCc2cc(F)c(C(F)(F)F)c(F)c2)NC(=O)CN(C)C(=O)[C@H](Cc2ccc(C(F)(F)F)cc2)N2CC/C=C\C[C@@H](C2=O)N(C)C(=O)CN(C2CC2)C1=O [PP2667]	A (a compound having 10 or more and less than 20 is denoted as A)	30.6 nM	1.8 nM	A (a compound having 10 or more and less than 20 is denoted as A)
CCO[C@@H]1C[C@H]2C(=O)NC3(CC(C)(C)C3)C(=O)N(C)[C@@H](C3CCCC3)C(=O)N(C)[C@H](C(=O)N3CCCCC3)CC(=O)N(C)[C@@H](COC)C(=O)N[C@@H]([C@@H](C)CC)C(=O)N(C)CC(=O)N(C)[C@H]3C/C=C\CCN(C3=O)[C@@H](Cc3ccc(C)cc3)C(=O)N(C)CC(=O)N[C@@H](CCc3cc(F)c(C(F)(F)F)c(F)c3)C(=O)N2C1 [PP2668]	A (a compound having 10 or more and less than 20 is denoted as A)	10.3 nM	0.18 nM	A (a compound having 10 or more and less than 20 is denoted as A)

Source: patent US20240158446A1, “CYCLIC COMPOUND HAVING SELECTIVE INHIBITORY ACTION ON KRAS OVER HRAS AND NRAS” (CHUGAI SEIYAKU KABUSHIKI KAISHA, priority 2021, published 2024)
